From EP1144365B1 (TANABE SEIYAKU CO., LTD., priority 1998, dated 2000)

Columns and labels:
α4β1 = target: T1, α4β1 (Homo sapiens, UniProt P05556+P13612); experiment: Jurkat-CS-1 assay; assay type: cell-based; details: Jurkat cell adhesion to immobilized CS-1 derived peptide
T1 construct: 100 µl of Jurkat cells (2.5 x 10^6 cells/ml) in DMEM plus BSA; host or cells: Jurkat T-cell line
Method: The CS-1 derived peptide, CLHPGEILDVPST, and the scrambled control peptide, CLHGPIELVSDPT, were synthesized on a Beckman 990 synthesizer using t-Boc methodology. The peptides were immobilized onto microtiter plates using the heterobifunctional crosslinker 3-(2-pyridyldithio)propionic acid N-hydroxysuccinimide ester (SPDP) as reported by Pierschbacher et al., Proc. Natl. Acad. USA, 80:1224-1227 (1983). Microtiter plates were coated with 20 µg/ml HSA for 2 hr. at room temperature, washed once with PBS and derivatized with 10 µg/ml SPDP for 1 hr. After washing, 100 µl of a 100 µg/ml cysteine containing peptide solution which had been recently dissolved was added to the wells and allowed to crosslink to the plates overnight at 4 °C. Unbound peptide was removed from plates by washing with PBS. To block non-reacted sites, the plates are coated with 100 µl of a 2.5 mg/ml BSA solution in PBS for 1 hr. at 37 °C. 100 µl of Jurkat cells (2.5 x 10^6 cells/ml) in DMEM plus BSA (2.5 mg/ml) was mixed with an appropriate concentration of the compound to be tested and the mixture was added to peptide coated dishes and incubated for 1 hr. at 37 °C. Generally 100, 20, 5 and 1.25 µM concentrations of the compound were tested.
Following this incubation the plates were washed once with PBS and the attached cells were fixed with 3% paraformaldehyde in PBS and stained with 0.5% toluidine blue in 3.7% formaldehyde. The cells were stained overnight at room temperature and the optical density at 590 nm of toluidine blue stained cells was determined using a vertical pathway spectrophotometer to quantitate attachment (VMAX Kinetic Microplate Reader, Molecular Devices, Menlo Park, CA). This procedure is a modification of a previously published method (Cardarelli et al, J. Biol. Chem., 269:18668-18673 (1994) and Cardarelli et al, Proc. Natl. Acad. Sci. USA, 83:2647-2651 (1986)).

α4β1 integrin = target: T2, α4β1 integrin (Homo sapiens, UniProt P05556+P13612); experiment: Jurkat-Endothelial Cell Adhesion Assay (Jurkat EC); assay type: cell-based; details: Jurkat cell adhesion to IL-1 stimulated endothelial cell monolayers
T2 construct: a T-cell line, Jurkat, known to express the α4β1 integrin; host or cells: Jurkat T-cell line
T2 sequence (P13612 34-1032): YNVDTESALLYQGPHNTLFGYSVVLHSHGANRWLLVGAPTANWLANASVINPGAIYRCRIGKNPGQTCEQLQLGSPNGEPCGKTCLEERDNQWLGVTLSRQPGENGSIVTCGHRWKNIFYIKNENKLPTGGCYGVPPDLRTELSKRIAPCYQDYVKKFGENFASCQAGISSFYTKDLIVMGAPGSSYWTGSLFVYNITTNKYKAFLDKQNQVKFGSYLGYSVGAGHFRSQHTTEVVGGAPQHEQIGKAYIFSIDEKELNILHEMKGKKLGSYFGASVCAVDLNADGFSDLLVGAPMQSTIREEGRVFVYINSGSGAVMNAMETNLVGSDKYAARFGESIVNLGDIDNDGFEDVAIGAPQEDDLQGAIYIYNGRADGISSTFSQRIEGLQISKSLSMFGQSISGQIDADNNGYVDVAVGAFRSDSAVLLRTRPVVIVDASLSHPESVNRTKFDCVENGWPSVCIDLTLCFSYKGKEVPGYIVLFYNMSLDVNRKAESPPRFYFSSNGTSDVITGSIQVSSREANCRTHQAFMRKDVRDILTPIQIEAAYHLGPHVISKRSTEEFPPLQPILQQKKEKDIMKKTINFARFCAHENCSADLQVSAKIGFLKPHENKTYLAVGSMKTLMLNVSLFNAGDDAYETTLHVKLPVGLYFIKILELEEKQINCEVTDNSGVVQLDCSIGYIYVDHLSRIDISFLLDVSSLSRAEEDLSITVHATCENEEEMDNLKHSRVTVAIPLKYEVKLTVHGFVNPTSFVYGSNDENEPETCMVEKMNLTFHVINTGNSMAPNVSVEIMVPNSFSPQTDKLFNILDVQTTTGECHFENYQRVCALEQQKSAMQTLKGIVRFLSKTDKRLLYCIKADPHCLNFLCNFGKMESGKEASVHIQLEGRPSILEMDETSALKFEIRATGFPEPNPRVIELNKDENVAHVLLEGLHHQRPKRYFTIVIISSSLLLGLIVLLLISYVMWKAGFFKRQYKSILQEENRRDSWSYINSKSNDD
T2 sequence (P05556 21-798): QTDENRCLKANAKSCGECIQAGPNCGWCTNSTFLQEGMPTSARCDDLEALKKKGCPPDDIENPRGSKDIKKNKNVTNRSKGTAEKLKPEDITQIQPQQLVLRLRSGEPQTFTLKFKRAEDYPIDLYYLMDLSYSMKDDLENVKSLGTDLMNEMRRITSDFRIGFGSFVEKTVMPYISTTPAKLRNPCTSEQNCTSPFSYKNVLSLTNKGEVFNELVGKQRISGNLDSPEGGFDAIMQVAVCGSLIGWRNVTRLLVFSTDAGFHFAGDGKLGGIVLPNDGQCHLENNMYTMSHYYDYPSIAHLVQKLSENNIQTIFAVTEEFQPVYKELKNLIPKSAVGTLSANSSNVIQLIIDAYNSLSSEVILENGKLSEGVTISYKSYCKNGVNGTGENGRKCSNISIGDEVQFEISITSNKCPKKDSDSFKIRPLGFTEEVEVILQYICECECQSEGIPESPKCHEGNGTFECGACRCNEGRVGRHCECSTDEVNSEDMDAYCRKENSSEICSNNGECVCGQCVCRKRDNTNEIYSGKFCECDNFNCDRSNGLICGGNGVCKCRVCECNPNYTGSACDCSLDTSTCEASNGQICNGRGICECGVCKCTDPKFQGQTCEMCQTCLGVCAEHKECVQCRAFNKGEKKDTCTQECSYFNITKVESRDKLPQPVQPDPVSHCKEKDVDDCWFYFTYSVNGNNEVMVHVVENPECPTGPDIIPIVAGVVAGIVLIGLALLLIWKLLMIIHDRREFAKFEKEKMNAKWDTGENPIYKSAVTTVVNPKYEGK
Method: The following assay established the activity of the present compounds in inhibiting β1-mediated cell adhesion in a representative in vitro system. This assay measures the adhesive interactions of a T-cell line, Jurkat, known to express the α4β1 integrin, to endothelial monolayers in the presence of test compounds. The test compounds were added in increasing concentrations to T-cells and then the T-cell compound mixture was added to IL-1 stimulated endothelial cell monolayers. The plates were incubated, washed and the percentage of attached cells was quantitated.
Human umbilical vein endothelial cells were purchased from Clonetics (San Diego, CA.) at passage number 2. The cells were grown on 0.5% porcine skin gelatin pre-coated flasks (Sigma, St. Louis MO.) in EGM-UV media (Clonetics, San Diego, CA) supplemented with 10% fetal bovine serum. Cells are refed every 2-3 days reaching confluence by day 4 to 6. […] The endothelial cells are not used following passage 6.
The T-cell line Jurkat was obtained from American Type Tissue Culture Collection (Rockville, MD) and the cells were cultured in RPMI containing 10 % fetal calf serum. The cells were washed twice in Hank's Balanced Salt Solution (HBSS) and resuspended in Dulbecco's Minimal Eagle's Media (DMEM) containing 2.5 mg/ml Human Serum Albumin (HSA). Jurkat cells (1x10^6 cells/ml) were stained with 10 ng/ml BCECF-AM (Molecular Probes, Eugene, OR)) in HBSS without phenol red. The cells were loaded with BCECF for 60 minutes in the dark at 37°C, washed 2 times, and resuspended in DMEM-HSA solution.
Confluent endothelial monolayers, grown in 96-well tissue culture plates, were stimulated for 4 hr. at 37 °C with 0.1 ng/ml (∼50 U/ml) recombinant IL-1 (Amgen, Thousand Oaks, CA). Following this incubation, the monolayers were washed twice with HBSS and 0.1 ml of DMEM-HSA solution was added. Jurkat cells (5 x 10^5 cells) were combined with the appropriate concentration of the test compound and 0.1 ml of the Jurkat cell-compound mixture was added to the endothelial cell monolayers. Generally, 100, 20, 5 and 1.25 µM compound concentrations were tested. […] Following this incubation, the monolayers were washed twice with PBS containing 1 mM calcium chloride and 1 mM magnesium chloride' and the plates were read using a Millipore Cytofluor 2300 (Marlboro, MA.). Fluorescence in each well was measured as Arbitrary Fluorescence Units and percent adhesion in the absence of compound was adjusted to 100% and the % adhesion in the presence of compound was calculated. Monolayers were also fixed in 3% paraformaldehyde and evaluated microscopically to verify the adhesion. This procedure is a modification of a previously published method (Cardarelli et al., J. Biol. Chem. 269:18668-18673 (1994)).

T1 sequence (P13612 34-1032): as the sequence (P13612 34-1032) above
T1 sequence (P05556 21-798): as the sequence (P05556 21-798) above

IC50 (α4β1)	IC50 (α4β1 integrin)	Structure (SMILES)
500 to 1000 nM	800 to 5000 nM	O=C(Nc1ccc(C[C@H](NC(=O)[C@@H]2CCC[C@H]2C(=O)O)C(=O)O)cc1)c1c(Cl)cccc1Cl [Example 9]
80 to 500 nM	≤ 800 nM	O=C(NC1(C(=O)N[C@@H](Cc2ccc(NC(=O)c3c(Cl)cccc3Cl)cc2)C(=O)O)CCCCC1)c1ccc([N+](=O)[O-])o1 [Example 67]
≤ 80 nM	800 to 5000 nM	COCCC(=O)NC1(C(=O)N[C@@H](Cc2ccc(NC(=O)c3c(Cl)cccc3Cl)cc2)C(=O)O)CCCCC1 [Example 51]
80 to 500 nM	800 to 5000 nM	CC(C)(CC(=O)O)CC(=O)NC1(C(=O)N[C@@H](Cc2ccc(NC(=O)c3c(Cl)cccc3Cl)cc2)C(=O)O)CCCCC1 [Example 48]
80 to 500 nM	800 to 5000 nM	O=C(O)c1cccc(C(=O)NC2(C(=O)N[C@@H](Cc3ccc(NC(=O)c4c(Cl)cccc4Cl)cc3)C(=O)O)CCCCC2)n1 [Example 62]
80 to 500 nM	≤ 800 nM	O=C(Nc1ccc(C[C@H](NC(=O)C2(NC(=O)C3CCOC3)CCCCC2)C(=O)O)cc1)c1c(Cl)cccc1Cl (some centres unmarked) [Example 69]
80 to 500 nM	≤ 800 nM	O=C(O)c1cccc(C(=O)NC2(C(=O)N[C@@H](Cc3ccc(NC(=O)c4c(Cl)cccc4Cl)cc3)C(=O)O)CCCCC2)c1 [Example 57]
500 to 1000 nM	5000 to 10000 nM	O=C(O)/C=C/C(=O)NC1(C(=O)N[C@@H](Cc2ccc(NC(=O)c3c(Cl)cccc3Cl)cc2)C(=O)O)CCCCC1 [Example 50]
80 to 500 nM	≤ 800 nM	O=C(Nc1ccc(C[C@H](NC(=S)N2CCCC(C(=O)O)C2)C(=O)O)cc1)c1c(Cl)cccc1Cl (stereo partly drawn) [Example 117, 1-[[[(1S)-1-carboxy-2-[4-[(2,6-dichlorobenzoyl)amino]phenyl]ethyl]amino]thiocarbonyl]-3-piperidinecarboxylic acid]

The remaining lines, values behind:

Structure (SMILES)	IC50 (α4β1)	IC50 (α4β1 integrin)
CC(=O)[C@H]1C[C@@H](C(=O)N[C@@H](Cc2ccc(NC(=O)c3c(Cl)cccc3Cl)cc2)C(=O)O)C1(C)C [Example 101, (1R-cis)-N-[(3-Acetyl-2,2-dimethyleyclobutyl)carbonyl]-4-[(2,6-dichlorobenzoyl)-amino]-L-phenylalanine]	80 to 500 nM	800 to 5000 nM
CC(=O)[C@@H]1C[C@@H](C(=O)N[C@@H](Cc2ccc(NC(=O)c3c(Cl)cccc3Cl)cc2)C(=O)O)C1(C)C [Example 100, (1R-trans)-N-[(3-Acetyl-2,2-dimethylcyclobutyl]carbonyl]-4-[(2,6-dichlorobenzoyl)amino]-L-phenylalanine]	80 to 500 nM	800 to 5000 nM
CC1(C)CC(C(=O)O)CC/C1=C\C(=O)N[C@@H](Cc1ccc(NC(=O)c2c(Cl)cccc2Cl)cc1)C(=O)O (stereo partly drawn) [Example 128, N-[(1E)-4-Carboxy-2,2-dimethyl-1-cyclohexylideneacetyl]-4-[(2,6-dichlorobenzoyl)amino]-L-phenylalanine]	80 to 500 nM	800 to 5000 nM
O=C(O)c1cccc(C(=O)N[C@H]2CCCC[C@H]2C(=O)N[C@@H](Cc2ccc(NC(=O)c3c(Cl)cccc3Cl)cc2)C(=O)O)n1 (relative stereo) [Example 80]	80 to 500 nM	800 to 5000 nM
CC1(C)[C@@H](C(=O)O)C[C@@H]1C(=O)N[C@@H](Cc1ccc(NC(=O)c2c(Cl)cccc2Cl)cc1)C(=O)O [Example 98, (1S-trans)-N-[(3-Carboxy-2,2-dimethylcyclobutyl)carbonyl]-4-[(2,6-dichlorobenzoyl)amino]-L-phenylalanine]	80 to 500 nM	≤ 800 nM
O=C(NC1(C(=O)N[C@@H](Cc2ccc(NC(=O)c3c(Cl)cccc3Cl)cc2)C(=O)O)CC2CCC1C2)c1cc(O)c2ccccc2n1 (some centres unmarked) [Example 73]	500 to 1000 nM	800 to 5000 nM
CC(C)(Sc1ccccc1C(=O)O)C(=O)N[C@@H](Cc1ccc(NC(=O)c2c(Cl)cccc2Cl)cc1)C(=O)O [Example 25]	500 to 1000 nM	≤ 800 nM
CC(=O)[C@@H]1C[C@H](C(=O)N[C@@H](Cc2ccc(NC(=O)c3cccnc3Cl)cc2)C(=O)O)C1(C)C [Example 105, (1S-cis)-N-[(3-Acetyl-2,2-dimethylcyclobutyl)carbonyl]-4-[[(2-chloro-3-pyridinyl)carbonyl]amino]-L-phenylalanine]	80 to 500 nM	800 to 5000 nM
O=C(O)/C=C/c1ccc(C(=O)N[C@@H](Cc2ccc(NC(=O)c3c(Cl)cccc3Cl)cc2)C(=O)O)cc1 [Example 125, N-[[4-[(E)-3-Hydroxy-3-oxo-1-propenyl]phenyl]carbonyl]-4-[(2,6-dichlorobenzoyl)amino] -L-phenylalanine]	≤ 80 nM	800 to 5000 nM
O=C(NC1(C(=O)N[C@@H](Cc2ccc(NC(=O)c3c(Cl)cccc3Cl)cc2)C(=O)O)CC2CCC1C2)c1ccc([N+](=O)[O-])o1 (some centres unmarked) [Example 76]	80 to 500 nM	800 to 5000 nM
CC1=C(C(=O)N[C@@H](Cc2ccc(NC(=O)c3c(Cl)cccc3Cl)cc2)C(=O)O)C(C)(C)CC/C1=C\C(=O)O [Example 118, N-[[(3E)-3-Carboxymethylene-2,6,6-trimethyl-1-cyclohexen-1-yl]carbonyl]-4-[(2,6-dichlorobenzoyl)amino]-L-phenylalanine]	≤ 80 nM	≤ 800 nM
CC(=O)[C@H]1C[C@H](C(=O)N[C@@H](Cc2ccc(NC(=O)c3c(Cl)cccc3Cl)cc2)C(=O)O)C1(C)C [Example 96, (1S-trans)-N-[(3-Acetyl-2,2-dimethylcyclobutyl)carbonyl]-4-[(2,6-dichlorobenzoyl)amino]-L-phenylalanine]	≤ 80 nM	≤ 800 nM
O=C(Nc1ccc(C[C@H](NC(=O)C2(NC(=O)C3CCCO3)CC3CCC2C3)C(=O)O)cc1)c1c(Cl)cccc1Cl (some centres unmarked) [Example 77]	80 to 500 nM	≤ 800 nM
O=C(Nc1ccc(C[C@H](NC(=O)C2(NC(=O)C3NC(C(=O)O)CS3)CC3CCC2C3)C(=O)O)cc1)c1c(Cl)cccc1Cl (some centres unmarked) [Example 75]	80 to 500 nM	≤ 800 nM
CC(=O)[C@H]1C[C@H](C(=O)N[C@@H](Cc2ccc(NC(=O)c3ccc(Cl)nc3Cl)cc2)C(=O)O)C1(C)C [Example 106, (1S-trans)-N-[(3-Acetyl-2,2-dimethylcyclobutyl)carbonyl]-4-[[(2,6-dichloro-3-pyridinyl)carbonyl]amino]-L-phenylalanine]	80 to 500 nM	800 to 5000 nM
CC1=C(C(=O)N[C@@H](Cc2ccc(NC(=O)c3c(Cl)cccc3Cl)cc2)C(=O)O)C(C)(C)CC/C1=C\C#N [Example 120, N-[[(3E)-3-Cyanomethylene-2,6,6-trimethyl-1-cyclohexen-1-yl]carbonyl]-4-[(2,6-dichlorobenzoyl)amino]-L-phenylalanine]	≤ 80 nM	≤ 800 nM
